The target in the assay is T1, purified recombinant human p38 alpha MAPK (Homo sapiens, UniProt Q16539).
T1 construct: purchased Millipore, USA
As to the kind of experiment: Inhibition of p38 alpha MAPK activity, TR-FRET kinase assay. In kind it is biochemical. To be noted: Concentration 1 μM; read-out: P38α Inhibition. The protocol:
Inhibition of p38 Alpha MAPK Activity: Time-Resolved Fluorescence Resonance Energy Transfer Kinase Standard Assay (TR-FRET Assay)
Compounds of present invention at various concentrations were premixed with DMSO. The experiment was initiated by mixing 0.5%-1.0% DMSO as vehicle/compounds with purified recombinant human p38 alpha MAPK (Millipore, USA) in the wells and 15 min incubation at room temperature. Thereafter, 30 nM of Biotinylated GST-ATF2 (Activation transcription Factor2) and 100 μM of ATP were added in to the wells containing reaction mixture, followed by reincubation for 60 minutes at RT. Reaction was terminated by addition of 10 mM of EDTA and detection reagent containing anti-phosphotheronine ATF2 antibody (PerkinElmer®, USA) labeled with europium chelate and APC (Allophycocyanin) labeled streptavidin, into the reaction mixture which was further incubated for 60 minutes at room temperature. The degree of phosphorylation of the substrate (GST-ATF2) was measured using Envision multimode reader (PerkinElmer®). Percentage inhibition of p38 kinase activity was calculated by determining ratio of specific europium 665 nm energy transfer signal to reference 615 nm signal.
In general terms: TR-FRET usually uses a lanthanide donor and a delayed reading to cut background.

These results are taken from US9963463B2, “Urea-substituted indanes as P38 map kinase inhibitors” (TORRENT PHARMACEUTICALS LIMITED, priority 2014, dated 2018).

T1 sequence (Q16539 whole entry): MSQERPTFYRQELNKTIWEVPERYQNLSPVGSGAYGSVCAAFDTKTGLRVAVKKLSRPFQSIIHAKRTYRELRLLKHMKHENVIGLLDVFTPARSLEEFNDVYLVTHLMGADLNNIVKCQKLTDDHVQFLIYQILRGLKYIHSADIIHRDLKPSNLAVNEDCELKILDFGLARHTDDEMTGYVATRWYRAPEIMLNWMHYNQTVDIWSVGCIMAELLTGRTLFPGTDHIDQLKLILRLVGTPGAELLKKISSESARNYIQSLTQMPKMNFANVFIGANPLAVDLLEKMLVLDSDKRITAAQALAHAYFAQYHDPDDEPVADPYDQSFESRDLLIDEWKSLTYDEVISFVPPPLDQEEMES

Broadly, the inhibition is the relative decrease from the control value, in per cent. With `Cc1ccc(-n2nc(C(C)(C)C)cc2NC(=O)Nc2ccc(OCC(=O)N3CCn4c(nnc4C(F)(F)F)C3)c3c2CCC3)cc1` [Compound 1, 1-[3-tert-butyl-1-(4-methylphenyl)-1H-pyrazol-5-yl]-3-(7-{2-oxo-2-[3-(trifluoromethyl)-5,6-dihydro[1,2,4]triazolo[4,3-a]pyrazin-7(8H)-yl]ethoxy}-2,3-dihydro-1H-inden-4-yl)urea], the inhibition at 1 µM is 80 to 100%.

For the compound `CC(C)(C)c1ccc(-n2nc(C(C)(C)C)cc2NC(=O)Nc2ccc(OCC(=O)N3CCn4c(nnc4C(F)(F)F)C3)c3c2CCC3)cc1` [Compound 2, 1-[3-tert-butyl-1-(4-tert-butylphenyl)-1H-pyrazol-5-yl]-3-(7-{2-oxo-2-[3-(trifluoromethyl)-5,6-dihydro[1,2,4]triazolo[4,3-a]pyrazin-7(8H)-yl]ethoxy}-2,3-dihydro-1H-inden-4-yl)urea], the inhibition at 1 µM fell in the range of 20 to 40%.

Regarding `CC(C)(C)c1cc(NC(=O)Nc2ccc(OCC(=O)N3CCn4c(nnc4C(F)(F)F)C3)c3c2CCC3)n(-c2ccc(C3CCCCC3)cc2)n1` [Compound 3, 1-[3-tert-butyl-1-(4-cyclohexylphenyl)-1H-pyrazol-5-yl]-3-(7-{2-oxo-2-[3-(trifluoromethyl)-5,6-dihydro[1,2,4]triazolo[4,3-a]pyrazin-7(8H)-yl]ethoxy}-2,3-dihydro-1H-inden-4-yl)urea], the inhibition at 1 µM fell in the range of 20 to 40%.

Consider `CC(C)(C)c1cc(NC(=O)Nc2ccc(OCC(=O)N3CCn4c(nnc4C(F)(F)F)C3)c3c2CCC3)n(-c2ccccc2)n1` [Compound 4, 1-(3-tert-butyl-1-phenyl-1H-pyrazol-5-yl)-3-(7-{2-oxo-2-[3-(trifluoromethyl)-5,6-dihydro[1,2,4]triazolo[4,3-a]pyrazin-7(8H)-yl]ethoxy}-2,3-dihydro-1H-inden-4-yl)urea], for which the inhibition at 1 µM is 60 to 80%.

With `COc1ccccc1-c1nnc2n1CCN(C(=O)COc1ccc(NC(=O)Nc3cc(C(C)(C)C)nn3-c3ccccc3)c3c1CCC3)C2` [Compound 5, 1-(3-tert-butyl-1-phenyl-1H-pyrazol-5-yl)-3-(7-{2-[3-(2-methoxyphenyl)-5,6-dihydro[1,2,4]triazolo[4,3-a]pyrazin-7(8H)-yl]-2-oxoethoxy}-2,3-dihydro-1H-inden-4-yl)urea], the inhibition at 1 µM fell in the range of 80 to 100%.

Turning to `Cc1ccc(-n2nc(C(C)(C)C)cc2NC(=O)Nc2ccc(OCCN3CCN(CCO)C(=O)C3)c3c2CCC3)cc1` [Compound 6, 1-[3-tert-butyl-1-(4-methylphenyl)-1H-pyrazol-5-yl]-3-(7-{2-[4-(2-hydroxyethyl)-3-oxopiperazin-1-yl]ethoxy}-2,3-dihydro-1H-inden-4-yl)urea], the inhibition at 1 µM lay in the range of 80 to 100%.

With `CSc1ccccc1-c1nnc2n1CCN(C(=O)COc1ccc(NC(=O)Nc3cc(C(C)(C)C)nn3-c3ccccc3)c3c1CCC3)C2` [Compound 7, 1-(3-tert-butyl-1-phenyl-1H-pyrazol-5-yl)-3-[7-(2-{3-[2-(methylsulfanyl)phenyl]-5,6-dihydro[1,2,4]triazolo[4,3-a]pyrazin-7(8H)-yl}-2-oxoethoxy)-2,3-dihydro-1H-inden-4-yl]urea], the inhibition at 1 µM was 80 to 100%.

As for `COc1ccccc1-c1nnc2n1CCN(C(=O)COc1ccc(NC(=O)Nc3cc(C(C)(C)C)nn3-c3ccc(O)c(Cl)c3)c3c1CCC3)C2` [Compound 8, 1-[3-tert-butyl-1-(3-chloro-4-hydroxyphenyl)-1H-pyrazol-5-yl]-3-(7-{2-[3-(2-methoxyphenyl)-5,6-dihydro[1,2,4]triazolo[4,3-a]pyrazin-7(8H)-yl]-2-oxoethoxy}-2,3-dihydro-1H-inden-4-yl)urea], the inhibition at 1 µM lay within 80 to 100%.

For `CSc1ccccc1-c1nnc2n1CCN(C(=O)COc1ccc(NC(=O)Nc3cc(C(C)(C)C)nn3-c3ccc(O)c(Cl)c3)c3c1CCC3)C2` [Compound 9, 1-[3-tert-butyl-1-(3-chloro-4-hydroxyphenyl)-1H-pyrazol-5-yl]-3-[7-(2-{3-[2-(methylsulfanyl)phenyl]-5,6-dihydro[1,2,4]triazolo[4,3-a]pyrazin-7(8H)-yl}-2-oxoethoxy)-2,3-dihydro-1H-inden-4-yl]urea], the inhibition at 1 µM fell in the range of 80 to 100%.

As to `CSc1ccccc1-c1nnc2n1CCN(C(=O)COc1ccc(NC(=O)Nc3cc(C(C)(C)C)nn3-c3ccc(C)cc3)c3c1CCC3)C2` [Compound 10, 1-[3-tert-butyl-1-(4-methylphenyl)-1H-pyrazol-5-yl]-3-[7-(2-{3-[2-(methylsulfanyl)phenyl]-5,6-dihydro[1,2,4]triazolo[4,3-a]pyrazin-7(8H)-yl}-2-oxoethoxy)-2,3-dihydro-1H-inden-4-yl]urea], the inhibition at 1 µM is 80 to 100%.

On to `CC(C)(C)c1cc(NC(=O)Nc2ccc(OCC(=O)N3CCn4c(nnc4-c4ccccc4SCCN4CCOCC4)C3)c3c2CCC3)n(-c2ccccc2)n1` [Compound 11, 1-(3-tert-butyl-1-phenyl-1H-pyrazol-5-yl)-3-(7-(2-[3-(2-{[2(morpholin-4-yl)ethyl]sulfanyl}phenyl)-5,6-dihydro[1,2,4]triazolo[4,3-a]pyrazin-7(8H)-yl]-2-oxoethoxy}-2,3-dihydro-1H-inden-4-yl)urea], for which the inhibition at 1 µM was 80 to 100%.

Regarding `CSc1ccccc1-c1nnc2n1CCN(CCOc1ccc(NC(=O)Nc3cc(C(C)(C)C)nn3-c3ccc(C)cc3)c3c1CCC3)C2` [Compound 13, 1-[3-tert-butyl-1-(4-methylphenyl)-1H-pyrazol-5-yl]-3-[7-(2-{3-[2-(methylsulfanyl)phenyl]-5,6-dihydro[1,2,4]triazolo[4,3-a]pyrazin-7(8H)-yl}ethoxy)-2,3-dihydro-1H-inden-4-yl]urea], the inhibition at 1 µM was 80 to 100%.

`COc1ccccc1-c1nnc2n1CCN(CCOc1ccc(NC(=O)Nc3cc(C(C)(C)C)nn3-c3ccc(C)cc3)c3c1CCC3)C2` [Compound 14, 1-[3-tert-butyl-1-(4-methylphenyl)-1H-pyrazol-5-yl]-3-(7-{2-[3-(2-methoxyphenyl)-5,6-dihydro[1,2,4]triazolo[4,3-a]pyrazin-7(8H)-yl]ethoxy}-2,3-dihydro-1H-inden-4-yl)urea]: the inhibition at 1 µM lay within 80 to 100%.

Take `Cc1ccc(-n2nc(C(C)(C)C)cc2NC(=O)Nc2ccc(OCCN3CCn4c(nnc4-c4ccccc4O)C3)c3c2CCC3)cc1` [Compound 15, 1-[3-tert-butyl-1-(4-methylphenyl)-1H-pyrazol-5-yl]-3-(7-{2-[3-(2-hydroxyphenyl)-5,6-dihydro[1,2,4]triazolo[4,3-a]pyrazin-7(8H)-yl]ethoxy}-2,3-dihydro-1H-inden-4-yl)urea]: the inhibition at 1 µM was in the range of 80 to 100%.

Turning to `Cc1ccc(-n2nc(C(C)(C)C)cc2NC(=O)Nc2ccc(OCCN3CCN(Cc4ccccc4)C(=O)C3)c3c2CCC3)cc1` [Compound 16, 1-{7-[2-(4-benzyl-3-oxopiperazin-1-yl)ethoxy]-2,3-dihydro-1H-inden-4-yl}-3-[3-tert-butyl-1-(4-methylphenyl)-1H-pyrazol-5-yl]urea], the inhibition at 1 µM was 80 to 100%.

Regarding `COc1ccc(-n2nc(C(C)(C)C)cc2NC(=O)Nc2ccc(OCCN3CCN(CC4CC4)C(=O)C3)c3c2CCC3)cc1` [Compound 17, 1-[3-tert-butyl-1-(4-methoxyphenyl)-1H-pyrazol-5-yl]-3-(7-{2-[4-(cyclopropylmethyl)-3-oxopiperazin-1-yl]ethoxy}-2,3-dihydro-1H-inden-4-yl)urea], the inhibition at 1 µM was 60 to 80%.

Turning to `CC(C)(C)c1cc(NC(=O)Nc2ccc(OCCN3CCN(CC4CC4)C(=O)C3)c3c2CCC3)n(-c2ccc(O)cc2)n1` [Compound 18, 1-[3-tert-butyl-1-(4-hydroxyphenyl)-1H-pyrazol-5-yl]-3-(7-{2-[4-(cyclopropylmethyl)-3-oxopiperazin-1-yl]ethoxy}-2,3-dihydro-1H-inden-4-yl)urea], the inhibition at 1 µM fell in the range of 80 to 100%.

`Cc1ccc(-n2nc(C(C)(C)C)cc2NC(=O)Nc2ccc(OCCN3CCN(c4ccccc4)C(=O)C3)c3c2CCC3)cc1` [Compound 19, 1-[3-tert-butyl-1-(4-methylphenyl)-1H-pyrazol-5-yl]-3-{7-[2-(3-oxo-4-phenylpiperazin-1-yl)ethoxy]-2,3-dihydro-1H-inden-4-yl}urea]: the inhibition at 1 µM is 80 to 100%.

In the case of `Cc1ccc(-n2nc(C(C)(C)C)cc2NC(=O)Nc2ccc(OCCN3CCn4c(nnc4-c4ccccc4OCCN4CCOCC4)C3)c3c2CCC3)cc1` [Compound 20, 1-[3-tert-butyl-1-(4-methylphenyl)-1H-pyrazol-5-yl]-3-(7-{2-[3-{2-[2-(morpholin-4-yl)ethoxy]phenyl}-5,6-dihydro[1,2,4]triazolo[4,3-a]pyrazin-7(8H)-yl]ethoxy}-2,3-dihydro-1H-inden-4-yl)urea], the inhibition at 1 µM fell in the range of 80 to 100%.

With `Cc1ccc(-n2nc(C(C)(C)C)cc2NC(=O)Nc2ccc(OCCN3CCN(CC4CCCC4)C(=O)C3)c3c2CCC3)cc1` [Compound 21, 1-[3-tert-butyl-1-(4-methylphenyl)-1H-pyrazol-5-yl]-3-(7-{2-[4-(cyclopentylmethyl)-3-oxopiperazin-1-yl]ethoxy}-2,3-dihydro-1H-inden-4-yl)urea], the inhibition at 1 µM was 80 to 100%.

Take `Cc1ccc(-n2nc(C(C)(C)C)cc2NC(=O)Nc2ccc(OCCN3CCN(CC4CCC4)C(=O)C3)c3c2CCC3)cc1` [Compound 22, 1-[3-tert-butyl-1-(4-methylphenyl)-1H-pyrazol-5-yl]-3-(7-{2-[4-(cyclobutylmethyl)-3-oxopiperazin-1-yl]ethoxy}-2,3-dihydro-1H-inden-4-yl)urea]: the inhibition at 1 µM is 80 to 100%.
